Measured values from patent US20180353505A1, “COMPATIBLE SOLUTE OR SOLUTE MIXTURE FOR USE IN THE PREVENTION OR TREATMENT OF DISEASES HAVING BARRIER DEFECTS IN EPITHELIAL TISSUES” (bitop AG, priority 2015, published 2018).
“And” between values parts separate entries of the source, which are not always exact repeats. Identical values can stand only once.

Experiments:
[1] = tested on: rat bronchial epithelial cells (RLE); assay: Allergy prevention assay (APA), OVA penetration, RLE monolayer; type: cell-based
Excerpt: (§1) The cell culture vessel (6) comprises an inner (7) and an outer (5) reservoir, wherein the two compartment are partitioned by a transparent ThinCerts membrane (5) having a pore size of 0.4 μm. This pore size allows for cytokine and protein movement between the outer and inner reservoir (FIG. 6.) Eukaryotic cells may not pass through this membrane thus forming a single-layered closed cell layer which covers the whole membrane. In doing so, an arrangement is achieved by the experimental setup which reflects the apical side (outer reservoir) and basolateral side (inner reservoir within the inset) of epithelial cells. However, allergens, such as e.g. ovalbumin (OVA), may pass the membrane without problems due to their low molecule size.
(§2) If a closed epithelial cell layer is present, OVA may only pass this membrane barrier through “gaps”, tight junction or transcytosis from the apical to the basolateral side. […]
(§3) The cells of the respective cell line (see Table 3) were cultivated on a membrane (3) (FIG. 6) until formation of a closed single-layered cell layer (2) (synonymously epithelial monolayer). […] Subsequently, the OVA content was measured in the inner and outer reservoir by means of OVA-specific ELISA and the relative penetration of the epithelial monolayer with OVA in pretreated and non-treated cells was determined.

[2] = tested on: porcine renal epithelial cells (LLC-PK1); assay: TEER of LLC-PK1 monolayer after overnight incubation and BAK stress (FIG. 4); type: cell-based; settings: LLC-PK1, 50 mM ectoine over night, then BAK stress
Procedure: (§4) A defined strength (U) of a direct current (DC) is applied between two electrodes E1 and E2 for determination of TEER, wherein the single-layered cell layer (monolayer) is arranged between the two electrodes (FIG. 1), such that the applied direct current (DC) flows through the cells. The measurement of TEER is made by an epithelial voltmeter (EVOM2). The resulting current I is measured according to the ohmic resistance R, wherein R=U/I (Benson K, Cramer S, Galla H J (2013) Impedance-based cell monitoring: Barrier properties and beyond. FluidsBarriers, 10:5.). […]
(§5) The intact epithelial monolayer was respectively controlled by a TEER measurement. If no increase were measured in the TEER over two days, the epithelial cells have formed an intact epithelial monolayer having intact epithelial barrier (selective permeability barrier).
Additionally, an intact epithelial monolayer of porcine renal epithelial cells (LLC-PK1) was also incubated in cell culture medium with PBS (control), with 50 mM ectoine and with 0.1% lecithin (positive control) over night. Subsequently, stress treatment was made with 0.001% BAK and change of the transepithelial electric resistance [Ohm] was monitored hourly (FIG. 4).

[3] = tested on: epithelial cells of oral mucosa (TR146); assay: TEER of TR146 monolayer after 12 h incubation, no stress (FIG. 2); type: cell-based, human
Procedure: A defined strength (U) of a direct current (DC) is applied between two electrodes E1 and E2 for determination of TEER, wherein the single-layered cell layer (monolayer) is arranged between the two electrodes (FIG. 1), such that the applied direct current (DC) flows through the cells. The measurement of TEER is made by an epithelial voltmeter (EVOM2). The resulting current I is measured according to the ohmic resistance R, wherein R=U/I (Benson K, Cramer S, Galla H J (2013) Impedance-based cell monitoring: Barrier properties and beyond. FluidsBarriers, 10:5.).
For this purpose, in in vitro experiments, epithelial tissues were sown on special cell culture carrier having a membrane (ThinCerts, pore size 0.4 μm) and cultured to a closed, single-layered cell layer (synonymously epithelial monolayer) on the membrane (FIG. 1).
as §5
In order to measure effects of ectoine on barrier function, in particular membrane integrity, TR146 cells of an intact epithelial monolayer were incubated in cell culture medium with PBS (control), with 50 mM ectoine and with 0.1% lecithin (positive control) for 12 hours (h).

[4] = tested on: rabbit corneal epithelial cells (SIRC); assay: Allergy prevention assay (APA), OVA penetration, SIRC monolayer; type: cell-based
Excerpt: as §1
If a closed epithelial cell layer is present, OVA may only pass this membrane barrier through “gaps”, tight junction or transcytosis from the apical to the basolateral side. (Ding L, Zhang Y, Jiang Y, Wang L, Liu B, Liu J (2014) Transport of egg white ACE-Inhibitory peptide, Gln-Ile-Gly-Leu-Phe, in human intestinal Caco-2 cell monolayers with cytoprotective effect. J Agric Food Chem (Epub ahead of print)).
The cells of the respective cell line (see Table 3) were cultivated on a membrane (3) (FIG. 6) until formation of a closed single-layered cell layer (2) (synonymously epithelial monolayer). Subsequently, the epithelial monolayer was pretreated with ectoine (10, 50, 100 mM) in cell culture medium for 6 hours. After pretreatment with ectoine, the epithelia monolayer was incubated with 250 μg/ml of the allergen OVA (FIG. 6) over night. Subsequently, the OVA content was measured in the inner and outer reservoir by means of OVA-specific ELISA and the relative penetration of the epithelial monolayer with OVA in pretreated and non-treated cells was determined.

[5] = tested on: human keratinocytes (HaCaT); assay: Allergy prevention assay (APA), OVA penetration, HaCaT monolayer; type: cell-based; settings: OVA + 10 mM ectoine
Excerpt: as §1, §2, §3

HaCaT (drying stress) = assay: Allergy prevention assay (APA) with drying stress, HaCaT monolayer; type: cell-based, human
Excerpt: as §1, §2
as §3, with “determined. […]” for “determined.”

[6] = tested on: human nasal mucosa epithelial cells (RPMI-2650); assay: Allergy prevention assay (APA), OVA penetration, RPMI-2650 monolayer; type: cell-based
Excerpt: as §1, §2, §3

[7] = tested on: epithelial cells of the oral mucosa (TR146); assay: Allergy prevention assay (APA), OVA penetration, TR146 monolayer; type: cell-based, human; settings: TR146, OVA + 100 mM ectoine
Excerpt: as §1, §2, §3

[8] = tested on: human keratinocytes (HaCaT); assay: TEER of HaCaT monolayer after overnight incubation and air drying (FIG. 5); type: cell-based; settings: preincubation with ectoine (50/100 mM), air drying 5 min at RT, rehydration, 24 h with OVA
Procedure: as §4, §5
In a further experiment, an intact epithelial monolayer of human keratinocytes (HaCaT) was also incubated in cell culture medium with PBS (control), with 50 mM ectoine and with 100 mM ectoine over night. […] After air drying at RT under sterile conditions, the cells were overlaid with medium including OVA allergen (250 μg/ml) and incubated at 37° C. in the incubator for 24 hours and subsequently the TEER value was measured.

[9] = tested on: epithelial cells of the oral mucosa (TR146); assay: TEER of TR146 monolayer after overnight incubation and 0.005% SDS stress (FIG. 3); type: cell-based, human; settings: then 0.005% SDS
Procedure: as §4, §5
In order to subsequently measure the effect of ectoine on membrane stability under the influence of chemicals, an intact epithelial monolayer of epithelial cells of the oral mucosa (TR146) were incubated in cell culture medium with PBS (control), with 50 mM ectoine and with 0.1% lecithin (positive control) over night. Subsequently, stress treatment was made with 0.005% SDS and change of the transepithelial electric resistance [Ohm] was monitored hourly (FIG. 3).

Claudin-1 = Claudin-1 expression in HaCaT monolayer after heat stress (ELISA); type: cell-based, human
Procedure: The HaCaT cell line was cultured in a plastic cell culture vessel until a closed single-layered cell layer (HaCaT monolayer) was formed. Subsequently, the monolayer was pretreated with 50 mM or 100 mM ectoine in cell culture medium for 6 hours (h). After pretreatment, temperature treatment of the cells was made at 44° C. for 30 min. After heat stress, the monolayer was again incubated in the incubator at 37° C. for 24 hours. Subsequently, the HaCaT monolayer was harvested and, after lysis by means of cryoshock (freezing, unfreezing and scraping with spatula), the lysate was analysed for Claudin-1 by means of ELISA.

| Compound | Penetrations protection (as compared to PBS) [%] +/− SD ([1]; OVA + 50 mM ectoine) | Penetrations protection (as compared to PBS) [%] +/− SD ([1]; OVA + 100 mM ectoine) | Effect on TEER / membrane stability [2] | TEER value ([3]; TR146, 50 mM ectoine) [Ohm] | Penetrations protection (as compared to PBS) [%] +/− SD ([4]; OVA + 10 mM ectoine) | Penetrations protection (as compared to PBS) [%] +/− SD ([4]; OVA + 50 mM ectoine) | Penetrations protection (as compared to PBS) [%] +/− SD ([4]; OVA + 100 mM ectoine) | Penetrations protection (as compared to PBS) [%] +/− SD [5] | Penetrations protection (as compared to PBS) [%] +/− SD (HaCaT (drying stress); OVA + 50 mM ectoine) | Penetrations protection (as compared to PBS) [%] +/− SD (HaCaT (drying stress); OVA + 100 mM ectoine) | Penetrations protection (as compared to PBS) [%] +/− SD ([6]; OVA + 10 mM ectoine) | Penetrations protection (as compared to PBS) [%] +/− SD ([6]; OVA + 100 mM ectoine) | Penetrations protection (as compared to PBS) [%] +/− SD [7] | TEER [8] | TEER ([9]; TR146, 50 mM ectoine over night) [Ohm] | Claudin-1 expression, factor over medium and PBS without ectoine (Claudin-1; 100 mM ectoine, 24 hours) | Claudin-1 expression [Claudin-1] +/− SD (Claudin-1; Ectoine 100 mM 6 h, 44° C. 30 min, 24 h at 37° C.) [ng/ml +/− 0.006] | TEER value ([3]; TR146, 0.1% lecithin (positive control)) [Ohm] | TEER ([9]; TR146, 0.1% lecithin over night) [Ohm] |
| --- | --- | --- | --- | --- | --- | --- | --- | --- | --- | --- | --- | --- | --- | --- | --- | --- | --- | --- | --- |
| CC1=NC(C(=O)O)CCN1 (stereo not shown) [ectoine, 1,4,5,6-tetrahydro-2-methyl-4-pyrimidine carboxylic acid] | −6.3 +/−7.91^ % | −124.5 +/− 3.72% | stabilization of the membrane of epithelial cells LLC-PK1 is already achieved | 215 | 0 +/− 11.52% | 16.3 +/− 2.31% | up to 50% | −0.61 +/− 0.1% | 12% and 8.1 +/− 8.01% | 11.6 +/− 6.25% | 23.5 +/− 17.1% | up to 50% | 13.44 +/− 7.69% | approx. 180 Ohm | 215 | 3 | 0.22 |  |  |
| lecithin [reference compound] |  |  |  |  |  |  |  |  |  |  |  |  |  |  |  |  |  | 225 | 225 |
